The term melting point denotes the temperature of the solid-liquid transition.

Data set [1] concerns Sweetpotato whitefly-crawler (Bemisia tabaci) (BEMITA). The experiment in a line: Insecticidal test for sweetpotato whitefly-crawler in foliar spray assay on cotton plants. It is filed as in vivo. As to conditions: 200 ppm foliar spray on cotton plants, graded after 8-9 days, Abbott-corrected % control, read-out: BEMITA % Ctrl @ 200 ppm. Here is the method: Cotton plants grown in 3-inch pots, with 1 small (3-5 cm) true leaf, were used as test substrate. The plants were placed in a room with whitefly adults. Adults were allowed to deposit eggs for 2-3 days. After a 2-3 day egg-laying period, plants were taken from the adult whitefly room. Adults were blown off leaves using a hand-held Devilbiss sprayer (23 psi). Plants with egg infestation (100-300 eggs per plant) were placed in a holding room for 5-6 days at 82° F. and 50% RH for egg hatch and crawler stage to develop. Four cotton plants were used for each treatment. Compounds (2 mg) were dissolved in 1 mL of acetone solvent, forming stock solutions of 2000 ppm. The stock solutions were diluted 10× with 0.025% Tween 20 in H2O to obtain a test solution at 200 ppm. A hand-held Devilbiss sprayer was used for spraying a solution to both sides of cotton leaf until runoff. Reference plants (solvent check) were sprayed with the diluent only. Treated plants were held in a holding room for 8-9 days at approximately 82° F. and 50% RH prior to grading. Evaluation was conducted by counting the number of live nymphs per plant under a microscope. Insecticidal activity was measured by using Abbott's correction formula and presented in “Table 4. Biological Data for GPA (MYZUPE) and sweetpotato whitefly-crawler (BEMITA)” (see column “BEMITA”): Corrected % Control=100*(X−Y)/X • where • X=No. of live nymphs on solvent check plants • Y=No. of live nymphs on treated plants Pesticidally Acceptable Acid Addition Salts, Salt Derivatives, Solvates, Ester Derivatives, Polymorphs, Isotopes and Radionuclides

Data set [2] relates to Green Peach Aphid (Myzus persicae) (MYZUPE). Kind of data set: Bioassay on green peach aphid (GPA), foliar spray on cabbage seedlings. It is filed as in vivo. As to conditions: 72 h, 200 ppm foliar spray on cabbage seedlings, graded after three days, Abbott-corrected % control, read-out: MYZUPE % Ctrl @ 200 ppm. The method, then: Certain molecules disclosed in this document were tested against GPA using procedures described in the following example. In the reporting of the results, the “Table 3: GPA (MYZUPE) and sweetpotato whitefly-crawler (BEMITA) Rating Table” was used (See Table Section).
Cabbage seedlings grown in 3-inch pots, with 2-3 small (3-5 cm) true leaves, were used as test substrate. The seedlings were infested with 20-50 GPA (wingless adult and nymph stages) one day prior to chemical application. Four pots with individual seedlings were used for each treatment. Test compounds (2 mg) were dissolved in 2 mL of acetone/methanol (1:1) solvent, forming stock solutions of 1000 ppm test compound. The stock solutions were diluted 5× with 0.025% Tween 20 in H2O to obtain the solution at 200 ppm test compound. A hand-held aspirator-type sprayer was used for spraying a solution to both sides of […] leaves until runoff. Reference plants (solvent check) were sprayed with the diluent only containing 20% by volume of acetone/methanol (1:1) solvent. Treated plants were held in a holding room for three days at approximately 25° C. and ambient relative humidity (RH) prior to grading. Evaluation was conducted by counting the number of live aphids per plant under a microscope. Percent Control was measured by using Abbott's correction formula (W. S. Abbott, “A Method of Computing the Effectiveness of an Insecticide” J. Econ. Entomol. 18 (1925), pp. 265-267) as follows. Corrected % Control=100*(X−Y)/X • where • X=No. of live aphids on solvent check plants and • Y=No. of live aphids on treated plants
Biological Data for GPA (MYZUPE) and sweetpotato whitefly-crawler (BEMITA)” (See Table Section).

Take `Cc1nc(-c2cccnc2)cn1N(C)C(=O)C(C)C` [Compound 1]: the melting point lay within 122 to 125 °C. Moreover, the inhibition at 200 ppm in data set [1] was 0 to 80%. In addition, the inhibition at 200 ppm in data set [2] was in the range of 0 to 80%.

`CSC(C)CC(=O)N(C)n1cc(-c2cccnc2)nc1C` (centres unmarked) [Compound 2, N-Methyl-N-(2-methyl-4-pyridin-3-yl-imidazol-1-yl)-3-methylsulfanyl-butramide]: the inhibition at 200 ppm in data set [1] was below 0%; in data set [2], 0 to 80%.

For `Cc1nc(-c2cccnc2)cn1N(C)C(=O)OC(C)(C)C` [Compound 3, Methyl-(2-methyl-4-pyridin-3-yl-imidazol-1-yl)-carbamic acid tert-butyl ester], the inhibition at 200 ppm in data set [1] and in data set [2] was 0 to 80% throughout.

As for `Cc1nc(-c2cccnc2)c(C)n1NC(=O)OC(C)(C)C` [Compound 4, (2,5-Dimethyl-4-pyridin-3-yl-imidazol-1-yl)-carbamic acid tert-butyl ester], the inhibition at 200 ppm in data set [1] was 0 to 80%; in data set [2] it was below 0%.

Turning to `CC(=O)Nn1cc(-c2cccnc2)nc1C` [Compound 5], the inhibition at 200 ppm in data set [1] and in data set [2] was 80 to 100% each time.

In the case of `CC(=O)N(C)n1cc(-c2cccnc2)nc1C` [Compound 6], the inhibition at 200 ppm was in the range of 80 to 100% in data set [1] and 0 to 80% in data set [2].

As to `Cc1nc(-c2cccnc2)cn1N(C)C(=O)C(C)(C)C` [Compound 7], the inhibition at 200 ppm in data set [1] is 80 to 100%; in data set [2], 0 to 80%.

`Cc1nc(-c2cccnc2)cn1N(C)C(=O)CC(F)(F)F` [Compound 8]: the melting point lay in the range of 130.9 to 131.5 °C. The inhibition at 200 ppm in data set [1] fell in the range of 80 to 100%. In addition, in data set [2], the inhibition at 200 ppm was 0 to 80%.

Take `CCCCC(=O)N(C)n1cc(-c2cccnc2)nc1C` [Compound 9]: the inhibition at 200 ppm in data set [1] lay within 80 to 100%; in data set [2], 0 to 80%.

With `CSCCC(=O)N(C)n1cc(-c2cccnc2)nc1C` [Compound 10], the inhibition at 200 ppm in data set [1] fell in the range of 80 to 100%; in data set [2] it was 0 to 80%.

With `Cc1nc(-c2cccnc2)cn1N(CC1CC1)C(=O)C(C)(C)C` [Compound 11], the inhibition at 200 ppm in data set [1] fell in the range of 80 to 100%; in data set [2], 0 to 80%.

Turning to `Cc1nc(-c2cccnc2)cn1N(CC1CC1)C(=O)CC(F)(F)F` [Compound 12], the inhibition at 200 ppm was 80 to 100% in data set [1] and below 0% in data set [2].

In the case of `CCN(C(=O)C(C)(C)C)n1cc(-c2cccnc2)nc1C` [Compound 13], the inhibition at 200 ppm was 0 to 80% in data set [1] and below 0% in data set [2].

Regarding `CCN(C(=O)CC(F)(F)F)n1cc(-c2cccnc2)nc1C` [Compound 14], the inhibition at 200 ppm in data set [1] and in data set [2] was below 0% in each case.

With `CCCCC(=O)N(CC1CC1)n1cc(-c2cccnc2)nc1C` [Compound 15], the inhibition at 200 ppm in data set [1] lay within 80 to 100%; in data set [2], 0 to 80%.

On to `CSCC(C)(C)C(=O)N(C)n1cc(-c2cccnc2)nc1C` [Compound 16], for which the inhibition at 200 ppm in data set [1] and in data set [2] was below 0% throughout.

Turning to `CCN(C(=O)C(C)C)n1cc(-c2cccnc2)nc1C` [Compound 17], the inhibition at 200 ppm in data set [1] and in data set [2] was 0 to 80% each time.

Regarding `CCN(C(=O)CCSC)n1cc(-c2cccnc2)nc1C` [Compound 18], the inhibition at 200 ppm in data set [1] and in data set [2] was 80 to 100% each time.

For the compound `CCCCC(=O)N(CC)n1cc(-c2cccnc2)nc1C` [Compound 19], the values for the inhibition at 200 ppm in data set [1] and in data set [2] were 80 to 100% and 0 to 80%, respectively.

As to `Cc1nc(-c2cccnc2)cn1N(CC1CC1)C(=O)C(C)C` [Compound 20], the inhibition at 200 ppm is below 0% in data set [1] and 0 to 80% in data set [2].

For `CSCCC(=O)N(CC1CC1)n1cc(-c2cccnc2)nc1C` [Compound 21], the inhibition at 200 ppm in data set [1] fell in the range of 80 to 100%; in data set [2], 0 to 80%.

With `Cc1nc(-c2cncc(F)c2)cn1N(C)C(=O)C(C)C` [Compound 22], the figures for the inhibition at 200 ppm in data set [1] and in data set [2] were 80 to 100% and 0 to 80%, respectively.

As for `CSCCC(=O)N(C)n1cc(-c2cncc(F)c2)nc1C` [Compound 23], the inhibition at 200 ppm in data set [1] and in data set [2] was 80 to 100% each time.

Turning to `CCN(C(=O)C(C)C)n1cc(-c2cncc(F)c2)nc1C` [Compound 24], the inhibition at 200 ppm in data set [1] and in data set [2] was 0 to 80% each time.

On to `CCN(C(=O)CCSC)n1cc(-c2cncc(F)c2)nc1C` [Compound 25], for which the inhibition at 200 ppm in data set [1] was 80 to 100%; in data set [2], 0 to 80%.

Regarding `Cc1nc(-c2cncc(F)c2)cn1N(CC1CC1)C(=O)C(C)C` [Compound 26], the inhibition at 200 ppm in data set [1] and in data set [2] was 0 to 80% throughout.

As to `CSCCC(=O)N(CC1CC1)n1cc(-c2cncc(F)c2)nc1C` [Compound 27], the inhibition at 200 ppm lay within 80 to 100% in data set [1] and 0 to 80% in data set [2].

In turn, `CC(=O)Nn1cc(-c2cccnc2)nc1Cl` [Compound 39, N-(2-Chloro-4-(pyridin-3-yl)-1H-imidazol-1-yl)acetamide] had a melting point of 129 to 139 °C.

Take `CCN(C(=O)OC(C)(C)C)n1cc(-c2cccnc2)nc1Cl` [Compound 41, tert-Butyl (2-chloro-4-(pyridin-3-yl)-1H-imidazol-1-yl)(ethyl)carbamate]: the inhibition at 200 ppm in data set [1] was in the range of 80 to 100%; in data set [2], 0 to 80%.

These data come from patent publication US9210931B2, “Pesticidal compositions and processes related thereto” (Dow AgroSciences LLC, priority 2010, dated 2015).
